The values below come from paper PMC11003450, “Structure-property relationships of fluorinated carboxylic acid bioisosteres” (Bioorganic & medicinal chemistry letters, 2023).

Where two headings read alike, the source gives them in different places.

The nature of data set [1]: PAMPA (parallel artificial membrane permeability assay, ran by Analiza). In kind it is in vitro ADME. To be noted: for Papp: PAMPA. From the text:
In this work, in order to compare the properties of fluorinated carboxylic acid surrogates with those of other commonly used nonfluorinated bioisosteres, we present the design and synthesis of a focused set of matched molecular pairs (MMPs), which include examples of substituted alcohols and phenols featuring one or more fluorine atoms, and the characterization of these compounds for key physicochemical properties such as acidity (pKa), lipophilicity (logD7.4 and permeability (logPapp) in a parallel artificial membrane permeability assay (PAMPA). The data presented allow for an assessment of the impact of incorporation of fluorine on the physicochemical properties of carboxylic acid surrogates.
(In general: PAMPA measures passive passage across an artificial lipid membrane.)

Data set [2] is described as follows: logD7.4 by potentiometric titration (Sirius T3). To be noted: n-octanol/aqueous buffer.
Data set [3] is described as follows: pKa by potentiometric titration (Sirius T3). To be noted: Table 1.

One may read the logD as lipophilicity at a set pH, counting ionised and neutral species. Read a high logD as a more lipophilic compound. The term pKa denotes the negative logarithm of the acid dissociation constant. The low end stands for a group that gives up its proton readily, the high end for a group that holds its proton tightly. In the case of `Nc1ccc(Cc2cccc(O)c2[S+]([O-])C(F)(F)F)cc1` (stereo not shown) [Compound 10], in data set [1], the “PAMPA % retention (membrane retention)” value was 0.24%. The Papp in data set [1] (class by Pe, read-out: PAMPA Permeability) is greater than 1.5 ×10⁻⁶ cm/s; in data set [1] (read-out: PAMPA Pe (effective permeability)) it was 10.5 ×10⁻⁶ cm/s. In addition, the logD in data set [2] (pH 7.4, logD7.4, n-octanol / aqueous buffer pH 7.4, Table 1) worked out at 1.96; in data set [2] (pH 7.4, logD7.4, supplement csv, compounds 1, 2, 3-10), 2. Further, the pKa in data set [3] (pKa (anilinium/aniline), anilinium/aniline pKa) stood at 4.21; in data set [3] (pKa, acidic group (carboxylic acid, alcohol or phenol)), 7.93.
